Experimental data as given in PubChem BioAssay AID2060498 (Molecular Pharmacology Branch, DTP, NCI, 2025).

Test system: 171881-019-R-J1-PDC tumor spheroids, viability
Experiment: Anticancer human tumor 171881-019-R-J1-PDC patient-derived invasive breast carcinoma cell line growth inhibition [GQUAD]
Details: spheroids with HUVEC and MSC; for IC50: curve of first compound; for viability, T/C: stronger effect = lower value
Excerpt: DNA G-quadruplex Stabilizer Agents in Combinations in Complex Spheroids
A high-throughput screen of multi-cell type tumor spheroids was designed to identify active combinations of DNA G-quadruplex stabilizer agents and targeted small molecules. Complex spheroids include a stromal component modeled by human endothelial cells (HUVEC) and fibroblasts modeled by human mesenchymal stem cells (MSCs). The concentration ranges selected for each drug and investigational agent were based upon clinically achievable concentrations if the clinical Cmax of the agent was known.
Compounds. The drugs and investigational agents: pidnarulex (CX-5461; NSC782164), APTO-253 (NSC789042), BRACO-19 (NSC847499), peposertib (NSC802822), ceralasertib (NSC780249), elimusertib (NSC800525), camonsertib (NSC841442), AZD-1390 (NSC803789), olaparib (NSC753686), talazoparib (NSC767125), ART-558 (NSC835418), sotorasib (NSC818433), MRTX-1133 (NSC836407), SN-38 (NSC673596), topotecan (NSC609699), etoposide (NSC141540), doxorubicin (NSC123127), gemcitabine (NSC613327), 5-fluorouracil (NSC19893), paclitaxel (NSC125973), vemurafenib (NSC761431), panobinostat (NSC761190), R-306465 (JNJ-16241199; NSC773264), adavosertib (NSC754352), TP-3654 (NSC805149), carboplatin (NSC241240), KSQ-4279 (NSC840948), and staurosporine (NSC755774) were obtained from the National Cancer Institute (NCI) Developmental Therapeutics Program Chemical Repository (34). The FDA-approved anticancer drug set is available from the NCI Developmental Therapeutics Program. […] The stock solutions were prepared in dimethyl sulfoxide (DMSO, Sigma-Aldrich, St. Louis, MO, cat. D2650) at 800-fold the tested concentration and stored at -70 degrees C prior to their use. All drugs and investigational agents were tested over a range starting from a high concentration at or near the clinical Cmax and decreasing in half-log increments. If the clinical Cmax for an agent had not been determined, the highest concentration tested was 10 microM.
2.3 Cell Culture. All cells were maintained in an incubator at 37 degrees C and 5% CO2 with 95% humidity. The PDC lines were cultured according to standard operating procedures established by the NCI PDMR. All PDCs were thawed and cultured in Matrigel-coated flasks prepared with a working solution of 1X Ham's F-12 nutrient mix, without supplementation (Invitrogen, cat. 11765054), 100 U/mL penicillin-streptomycin (Invitrogen, cat. 15140122), and 2.5% Matrigel (Corning Inc., cat. 354248) for the first three passages. The 857933-349-R-J2-PDC line was cultured in 6C/Colon 1B media, which includes advanced DMEM/F-12 (Thermo Fisher Scientific, cat. 12634028), 10 mM HEPES (Thermo Fisher Scientific, cat. 15630080), 1X GlutaMAX supplement (Thermo Fisher Scientific, cat. 35050061), 0.1 mg/mL primocin (InvivoGen, cat. ant-pm-2), 10% defined fetal bovine serum, heat inactivated (HyClone Laboratories Inc., cat. SH30070.03HI), 50% L-WRN conditioned media (ATCC, cat. CRL-3276), 1.25 mM N-Acetyl-L-cysteine (Sigma-Aldrich, cat. A9165), 10 mM nicotinamide (Sigma-Aldrich, cat. N0636), 1X B-27 supplement (Thermo Fisher Scientific, cat. 17504044), 1X N-2 supplement (Thermo Fisher Scientific, cat. 17502048), 10 microM Y-27632 dihydrochloride (Tocris Bioscience, cat. 1254), and 50 ng/mL human EGF recombinant protein (Thermo Fisher Scientific, cat. PHG0311). The 485176-168-R4-J1-PDC line was cultured in Panc media, which includes all 6C/Colon 1B media components plus 100 ng/mL human FGF-10 (Thermo Fisher Scientific, cat. 100-26), 500 nM SB-431542 (Selleckchem, cat. S1067), and gastrin (Tocris, cat. 3006).
[…]
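Further: spheroids exposed to compounds for 7 days.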
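Wherever viability, T/C is given: 100% = DMSO vehicle control viability.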

With Nc1ccn(C2OC(CO)C(O)C2(F)F)c(=O)n1 (configuration not stated) + CN(C)c1ccc(Nc2c3ccc(NC(=O)CCN4CCCC4)cc3nc3cc(NC(=O)CCN4CCCC4)ccc23)cc1 the IC50 (second compound 0.0316 µM) was < 31.6 nM, the IC50 (second compound 0.1 µM) was < 31.6 nM and the IC50 (second compound 0.316 µM) was < 31.6 nM. The IC50 (second compound 1 µM) was < 31.6 nM, the IC50 (second compound 3.16 µM) was < 31.6 nM and the IC50 (second compound 10 µM) was < 31.6 nM. It also gave a viability, T/C (second compound 0.0316 µM, first compound 0.0316 µM) of 35.4%, a viability, T/C (second compound 0.0316 µM, first compound 0.1 µM) of 35.6% and a viability, T/C (second compound 0.0316 µM, first compound 0.316 µM) of 44.6%. It also gave a viability, T/C (second compound 0.0316 µM, first compound 1 µM) of 51%, a viability, T/C (second compound 0.0316 µM, first compound 3.16 µM) of 45.9% and a viability, T/C (second compound 0.0316 µM, first compound 10 µM) of 47.7%. The viability, T/C (second compound 0.1 µM, first compound 0.0316 µM) was 33.7%, the viability, T/C (second compound 0.1 µM, first compound 0.1 µM) was 38% and the viability, T/C (second compound 0.1 µM, first compound 0.316 µM) was 46.6%. The viability, T/C (second compound 0.1 µM, first compound 1 µM) was 53%, the viability, T/C (second compound 0.1 µM, first compound 3.16 µM) was 45.6% and the viability, T/C (second compound 0.1 µM, first compound 10 µM) was 46%. The viability, T/C (second compound 0.316 µM, first compound 0.0316 µM) was 33%, the viability, T/C (second compound 0.316 µM, first compound 0.1 µM) was 36% and the viability, T/C (second compound 0.316 µM, first compound 0.316 µM) was 39.9%. It also gave a viability, T/C (second compound 0.316 µM, first compound 1 µM) of 38.5%, a viability, T/C (second compound 0.316 µM, first compound 3.16 µM) of 47.2% and a viability, T/C (second compound 0.316 µM, first compound 10 µM) of 38.4%. The viability, T/C (second compound 1 µM, first compound 0.0316 µM) was 12.5%, the viability, T/C (second compound 1 µM, first compound 0.1 µM) was 8.63% and the viability, T/C (second compound 1 µM, first compound 0.316 µM) was 13.7%. The viability, T/C (second compound 1 µM, first compound 1 µM) was 11.8%, the viability, T/C (second compound 1 µM, first compound 3.16 µM) was 15% and the viability, T/C (second compound 1 µM, first compound 10 µM) was 16.6%. It also gave a viability, T/C (second compound 3.16 µM, first compound 0.0316 µM) of 2.29%, a viability, T/C (second compound 3.16 µM, first compound 0.1 µM) of 1.62% and a viability, T/C (second compound 3.16 µM, first compound 0.316 µM) of 2.47%. For the same molecule, the viability, T/C (second compound 3.16 µM, first compound 1 µM) was 1.2%, the viability, T/C (second compound 3.16 µM, first compound 3.16 µM) was 2.41% and the viability, T/C (second compound 3.16 µM, first compound 10 µM) was 2.49%. For the same molecule, the viability, T/C (second compound 10 µM, first compound 0.0316 µM) was 0.27%, the viability, T/C (second compound 10 µM, first compound 0.1 µM) was 0.9% and the viability, T/C (second compound 10 µM, first compound 0.316 µM) was 0.82%. It also gave a viability, T/C (second compound 10 µM, first compound 1 µM) of 0.47%, a viability, T/C (second compound 10 µM, first compound 3.16 µM) of 1.36% and a viability, T/C (second compound 10 µM, first compound 10 µM) of 0.37%.
